According to patent US8664399B2, “Substituted heterocyclic compounds as ion channel modulators” (Gilead Sciences, Inc., priority 2008, dated 2014):

Experiments:
Type in all cases: cell-based
[1] = target: T1, human cardiac sodium channel, hNav1.5 (Homo sapiens, UniProt Q14524); assay: Late INa screening assay (automated whole cell patch clamp, PatchXpress; late current generated with 10 μM Tefluthrin); conditions: HEK293 cells expressing hNav1.5; for inhibition at 10 µM: 10 μM test compound, read-out: Late Ina % blk (10 μM test cmpd)
T1 construct: host or cells: HEK293
T1 sequence (Q14524 whole entry): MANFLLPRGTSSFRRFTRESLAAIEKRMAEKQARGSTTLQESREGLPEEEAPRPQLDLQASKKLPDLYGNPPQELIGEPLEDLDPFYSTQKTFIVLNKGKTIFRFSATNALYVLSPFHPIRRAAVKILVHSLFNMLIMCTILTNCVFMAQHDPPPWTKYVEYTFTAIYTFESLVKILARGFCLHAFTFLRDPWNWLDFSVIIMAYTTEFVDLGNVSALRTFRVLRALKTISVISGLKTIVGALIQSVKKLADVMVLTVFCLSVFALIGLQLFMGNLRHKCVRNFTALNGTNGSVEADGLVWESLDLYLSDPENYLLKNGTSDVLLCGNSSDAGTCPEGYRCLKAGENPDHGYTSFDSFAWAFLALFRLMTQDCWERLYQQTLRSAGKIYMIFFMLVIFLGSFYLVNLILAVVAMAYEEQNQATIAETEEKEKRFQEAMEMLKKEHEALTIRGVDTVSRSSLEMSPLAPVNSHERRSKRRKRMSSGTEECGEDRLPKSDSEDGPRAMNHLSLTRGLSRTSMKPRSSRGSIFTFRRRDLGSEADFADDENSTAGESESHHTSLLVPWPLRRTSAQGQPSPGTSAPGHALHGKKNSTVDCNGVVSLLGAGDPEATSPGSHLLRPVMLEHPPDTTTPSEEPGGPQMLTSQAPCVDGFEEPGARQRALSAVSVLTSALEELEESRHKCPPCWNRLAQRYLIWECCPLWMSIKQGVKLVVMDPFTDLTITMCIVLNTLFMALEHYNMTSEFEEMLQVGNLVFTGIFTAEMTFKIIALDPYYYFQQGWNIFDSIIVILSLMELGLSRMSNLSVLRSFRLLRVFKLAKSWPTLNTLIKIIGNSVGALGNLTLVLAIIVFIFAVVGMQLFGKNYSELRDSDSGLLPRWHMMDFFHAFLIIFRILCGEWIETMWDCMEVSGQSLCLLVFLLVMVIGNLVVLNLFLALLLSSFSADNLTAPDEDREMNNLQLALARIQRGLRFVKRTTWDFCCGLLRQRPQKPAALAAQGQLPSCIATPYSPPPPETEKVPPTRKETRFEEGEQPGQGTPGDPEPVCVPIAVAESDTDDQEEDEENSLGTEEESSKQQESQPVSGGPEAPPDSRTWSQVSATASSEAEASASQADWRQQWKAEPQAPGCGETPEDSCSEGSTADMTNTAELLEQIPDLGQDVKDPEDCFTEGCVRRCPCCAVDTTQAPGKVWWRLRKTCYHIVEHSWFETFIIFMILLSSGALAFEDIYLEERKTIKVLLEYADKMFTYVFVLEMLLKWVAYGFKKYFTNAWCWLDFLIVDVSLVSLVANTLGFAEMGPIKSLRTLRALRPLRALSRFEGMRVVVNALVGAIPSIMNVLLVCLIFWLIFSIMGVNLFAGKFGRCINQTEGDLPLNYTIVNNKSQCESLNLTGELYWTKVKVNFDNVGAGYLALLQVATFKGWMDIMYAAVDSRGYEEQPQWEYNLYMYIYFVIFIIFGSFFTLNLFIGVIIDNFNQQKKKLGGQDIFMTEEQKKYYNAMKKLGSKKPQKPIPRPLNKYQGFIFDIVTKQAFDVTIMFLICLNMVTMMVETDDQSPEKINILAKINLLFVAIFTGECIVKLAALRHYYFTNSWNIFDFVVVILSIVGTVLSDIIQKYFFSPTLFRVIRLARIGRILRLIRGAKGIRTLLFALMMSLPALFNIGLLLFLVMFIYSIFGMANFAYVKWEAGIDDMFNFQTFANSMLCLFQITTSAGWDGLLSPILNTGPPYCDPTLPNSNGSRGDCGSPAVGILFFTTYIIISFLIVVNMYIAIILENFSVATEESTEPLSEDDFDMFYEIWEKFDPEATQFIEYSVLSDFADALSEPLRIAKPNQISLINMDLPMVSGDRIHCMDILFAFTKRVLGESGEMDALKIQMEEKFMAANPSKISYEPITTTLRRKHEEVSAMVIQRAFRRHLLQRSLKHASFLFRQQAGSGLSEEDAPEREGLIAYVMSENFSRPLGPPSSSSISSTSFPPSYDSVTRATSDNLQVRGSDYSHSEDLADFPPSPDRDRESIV
Method: The late sodium current (Late INa) and peak sodium current (Peak INa) assays were performed on an automated electrophysiology platform, PatchXpress 7000A (MDS Analytical Technologies, Sunnyvale, Calif.), which uses the whole cell patch clamp technique to measure currents through the cell membrane of up to 16 cells at a time. The assay uses an HEK293 (human embryonic kidney) cell line heterologously expressing the wild-type human cardiac sodium channel, hNav1.5, purchased from Millipore (Billerica, Mass.). No beta subunits were coexpressed with the Na channel alpha subunit. Cells were maintained with standard tissue culture procedures and stable channel expression was maintained with 400 μg/ml Geneticin in the culture medium. Cells isolated for use on PatchXpress were incubated for 5 minutes in Versene 1X and then for 2 minutes in 0.0125% Trypsin-EDTA (both at 37° C.) to ensure that 80-90% of the cells are single and not part of a cell cluster. Experiments were carried out at 24-27° C.
For both the Late INa and Peak INa assays, series resistance compensation was set to 50% and whole-cell compensation is performed automatically. Currents were low-pass filtered at 10 kHz and digitized at 31.25 kHz. Currents through open sodium channels were automatically recorded and stored in the DataXpress2 database (MDS Analytical Technologies, Sunnyvale, Calif.). Analysis is performed using DataXpress2 analysis software and data are compiled in Excel.
Compound stocks were routinely made in glass vials to 10 mM in dimethyl sulfoxide (DMSO). In some cases, when compounds were not soluble in DMSO, they were made in 100% ethanol. Stocks were sonicated as necessary. The extracellular solution for screening Late INa was composed of: 140 mM NaCl, 4 mM KCl, 1.8 mM CaCl2, 0.75 mM MgCl2, and 5 mM HEPES with pH adjusted to 7.4 using NaOH. The extracellular solution for screening Peak INa was composed of: 20 mM NaCl, 120 mM N-methyl-D glucamine, 4 mM KCl, 1.8 mM CaCl2, 0.75 mM MgCl2, and 5 mM HEPES with pH adjusted to 7.4 using HCl. The intracellular solution used to perfuse the inside of the cells for both the Late INa and Peak INa assays contained: 120 mM CsF, 20 mM CsCl, 5 mM EGTA, 5 mM HEPES and pH adjusted to 7.4 with CsOH. […] The 0Na extracellular solution used at the end of each experiment for the Late INa and Peak INa assays to measure baseline current contained: 140 mM N-methyl-D-glucamine; 4 mM KCl; 1.8 mM CaCl2; 0.75 mM MgCl2; 5 mM HEPES and pH was adjusted to 7.4 with HCl.
For the Late INa assay, sodium channels were activated every 10 seconds (0.1 Hz) by depolarizing the cell membrane to −20 mV for 250 milliseconds (ms) from a holding potential of −120 mV. In response to a −20 mV voltage step, typical Nav1.5 sodium currents activate rapidly to a peak negative current and then inactivate nearly completely within 3-4 ms.
All compounds were tested to determine their activity in blocking the late sodium current. Late INa current was generated by adding 10 μM Tefluthrin (pyrethroid) to the extracellular solution while recording Na currents.

hERG potassium channel = target: T2, hERG potassium channel (Homo sapiens, UniProt Q12809); assay: hERG screening assay (PatchXpress automated patch clamp, CHO cell line); conditions: CHO cells; for hERG Patch Clamp hERG % blk (1 μm test cmpd): 1 μm test compound; for hERG Patch Clamp hERG % blk (10 μm test cmpd): 10 μm test compound
T2 construct: expressed in transfected cells; host or cells: CHO (Chinese Hamster Ovary)
T2 sequence (Q12809 whole entry): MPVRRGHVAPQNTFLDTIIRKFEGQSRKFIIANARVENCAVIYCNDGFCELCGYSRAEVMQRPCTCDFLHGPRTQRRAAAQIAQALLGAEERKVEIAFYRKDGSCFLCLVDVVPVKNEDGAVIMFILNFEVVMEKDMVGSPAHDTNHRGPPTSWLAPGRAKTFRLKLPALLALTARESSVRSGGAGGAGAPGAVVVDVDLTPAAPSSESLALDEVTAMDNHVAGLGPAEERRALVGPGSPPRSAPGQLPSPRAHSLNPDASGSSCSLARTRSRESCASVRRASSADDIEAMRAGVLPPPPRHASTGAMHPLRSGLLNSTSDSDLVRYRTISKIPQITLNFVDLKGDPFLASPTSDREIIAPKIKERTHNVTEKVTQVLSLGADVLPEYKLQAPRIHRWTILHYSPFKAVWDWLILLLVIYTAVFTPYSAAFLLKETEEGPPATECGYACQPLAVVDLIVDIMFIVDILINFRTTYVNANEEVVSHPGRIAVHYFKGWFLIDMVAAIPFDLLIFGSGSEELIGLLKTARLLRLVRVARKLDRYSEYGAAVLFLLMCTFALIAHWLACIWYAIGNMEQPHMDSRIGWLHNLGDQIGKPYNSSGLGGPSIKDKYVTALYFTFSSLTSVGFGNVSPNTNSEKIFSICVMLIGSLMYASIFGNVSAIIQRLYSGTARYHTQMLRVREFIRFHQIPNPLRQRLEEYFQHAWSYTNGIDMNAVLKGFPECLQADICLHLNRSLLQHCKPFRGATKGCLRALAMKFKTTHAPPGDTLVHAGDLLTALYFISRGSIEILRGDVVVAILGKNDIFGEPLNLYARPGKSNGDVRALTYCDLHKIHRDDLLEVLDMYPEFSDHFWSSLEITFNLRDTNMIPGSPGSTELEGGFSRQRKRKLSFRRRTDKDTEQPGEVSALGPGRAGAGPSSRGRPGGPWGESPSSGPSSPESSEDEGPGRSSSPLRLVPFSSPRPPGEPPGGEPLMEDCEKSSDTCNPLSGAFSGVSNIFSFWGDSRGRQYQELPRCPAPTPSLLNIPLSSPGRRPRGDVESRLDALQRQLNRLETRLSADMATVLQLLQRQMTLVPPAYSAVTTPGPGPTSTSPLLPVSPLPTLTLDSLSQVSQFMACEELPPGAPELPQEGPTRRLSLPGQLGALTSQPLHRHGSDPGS
Method: Compounds were screened to test their activity in blocking the hERG potassium channel. The hERG channel is heterologously expressed in a CHO (Chinese Hamster Ovary) cell line. Cells were maintained with standard tissue culture procedures and stable channel expression is maintained with 500 μg/ml G418 in the culture medium. Cells were harvested for testing on the PatchXpress automated patch clamp with Accumax (Innovative Cell Technologies, San Diego, Calif.) to isolate single cells.
The following solutions were used for electrophysiological recordings. The external solution contains: 2 mM CaCl2; 2 mM MgCl2; 4 mM KCl; 150 mM NaCl; 10 mM Glucose; 10 mM HEPES (pH 7.4 with 1M NaOH, osmolarity). The internal solution contained: 140 mM KCl, 10 mM MgCl2, 6 mM EGTA, 5 mM HEPES, 5 mM ATP (pH adjusted to 7.25 with KOH).
hERG channels are activated when the voltage is stepped to +20 mV from the −80 mV holding potential. During a 5 second step at +20 mV, the channels activate and then largely inactivate, so the currents are relatively small. Upon returning to −50 mV from +20 mV, hERG currents transiently become much larger as inactivation is rapidly removed and then the channel closes. The first step to −50 mV for 300 ms is used as a baseline for measuring the peak amplitude during the step to −50 mV after channel activation. The peak current at −50 mV was measured both under control conditions and after addition of compound.
All compounds were prepared as 10 mM DMSO stocks in glass vials. Stock solutions were mixed by vigorous vortexing and sonication for about 2 minutes at room temperature. For testing, compounds were diluted in glass vials using an intermediate dilution step in pure DMSO and then further diluted to working concentrations in external solution. Dilutions were prepared no longer than 20 minutes before use.
After achieving the whole-cell configuration, cells were monitored for 90 seconds to assess stability and washed with external solution for 66 seconds. The voltage protocol described above was then applied to the cells every 12 seconds and throughout the whole procedure. Only cells with stable recording parameters and meeting specified health criteria were allowed to enter the compound addition procedure.
External solution containing 0.1% DMSO (vehicle) was applied to the cells first to establish the control peak current amplitude. After allowing the current to stabilize for 3 to 5 minutes, 1 μM and then 10 μM test compounds was applied. Each compound concentration was added 4 times and cells were kept in test solution until the effect of the compound reaches steady state or for a maximum of 12 minutes. After addition of test compound, a positive control (1 μM Cisapride) was added and must block >95% of the current for the experiment to be considered valid. Washout in the external solution compartment was performed until the recovery of the current reaches steady state. Data were analyzed using DataXpress, Clampfit (Molecular Devices, Inc., Sunnyvale) and Origin 7 (Originlab Corp.)

[2] = target: T3, human Nav1.7 (hNav1.7+β1 subunits) channels expressed in HEK293 cells (Homo sapiens, UniProt Q15858); assay: Nav1.7 screening assay (fluorescent dye-based membrane potential assay, veratridine); conditions: veratridine 50 μmol/L, read-out: IC50 for reduction of Nav1.7 Na+ current
T3 construct: expressed in transfected cells; host or cells: HEK293

IC50 [2] | Structure (SMILES) | inhibition at 10 µM [1] | hERG Patch Clamp hERG % blk (1 μm test cmpd) (hERG potassium channel) | hERG Patch Clamp hERG % blk (10 μm test cmpd) (hERG potassium channel) | Late Ina % blk (1 μM test cmpd) ([1]; 1 μM test compound)
0.2 µM | Cc1nc2ccc(Cl)cc2c(-c2ccccc2)c1-c1nnc(Cc2ccc(Cl)cc2)o1 [PT-005, 6-chloro-3-[5-(4-chlorobenzyl)-1,3,4-oxadiazol-2-yl]-2-methyl-4-phenylquinoline] | 43.6% | 10.5% | 32.5% | –
– | Cc1nc2ccc(Cl)cc2c(-c2ccccc2)c1C(=O)OC(c1ccccc1)C1CC1 (stereo not drawn) [PT-012, cyclopropyl(phenyl)methyl 6-chloro-2-methyl-4-phenylquinoline-3-carboxylate] | 20.5% | 10.5% | 13.5% | –
– | Cc1nc2ccccc2c(C)c1C(=O)OCc1ccc(Cl)cc1 [PT-019, 4-chlorobenzyl 2,4-dimethylquinoline-3-carboxylate] | 70.1% | 10.0% | 62.5% | 22.5%
– | CCOC(=O)c1c(CN2C(=O)CCC2=O)nc2ccc(Cl)cc2c1-c1ccccc1 [PT-009, ethyl 6-chloro-2-[(2,5-dioxopyrrolidin-1-yl)methyl]-4-phenylquinoline-3-carboxylate] | 53.3% | 24.0% | 65.5% | –
37.5 µM | Cc1nc2ccc(Cl)cc2c(-c2ccccc2)c1C(=O)OCC1CC1 [PT-016, cyclopropylmethyl 6-chloro-2-methyl-4-phenylquinoline-3-carboxylate] | 59% | 30.5% | 73.0% | –
– | CCOC(=O)c1c(Cn2ccnc2)nc2ccc(Cl)cc2c1-c1ccccc1 [PT-008, ethyl 6-chloro-2-(1H-imidazol-1-ylmethyl)-4-phenylquinoline-3-carboxylate] | 41.1% | 43.0% | 94.5% | –
